Laboratory results: patent US20220081481A1, “USE OF AGENTS CAPABLE OF INDUCING LC3-ASSOCIATED PHAGOCYTOSIS FOR TREATING SUSTAINED INFLAMMATION IN PATIENTS SUFFERING FROM CHRONIC LIVER DISEASE” (INSERM (INSTITUT NATIONAL DE LA SANTÉ ET DE LA RECHERCHE …, priority 2019, published 2022)
Ends that are not written are not given here.

Key:
[1] = test system: blood monocytes from healthy donors and cirrhotic patients; test: RT-PCR analysis of inflammatory gene expression in blood monocytes; format: cell-based, human; conditions: cirrhotic monocytes vs control-treated cells from healthy donors; 10 mM 3-MA, 10 μM DPI, 30 μM N8; FIG. 1C
Description: FIG. 1: Inhibition of LAP components enhances the inflammatory signature in blood monocytes from patients with cirrhosis. (A). Inverse correlation between circulating C-Reactive Protein (CRP) levels and the number of LC3+ pHrodo+ phagosomes containing E. Coli bioparticles in blood monocytes from patients with cirrhosis (n=14). *p=0.005, r=-0.7 for LC3+ pHrodo+ phagosomes number vs CRP. (B). PBMC were incubated for 4 hrs at 37° C. with either vehicle, 10 mM 3-MA, 10 μM DPI, 30 μM N8 or control mutant […] peptides Percentage of IL8+ production in CD14+ cells from patients (n=8) and healthy donors (n=6) PBMC. (C). RT-PCR analysis of inflammatory gene expression in blood monocytes from healthy donors (n=6-8) and cirrhotic patients (n=6-11). Results are expressed as fold over respective control. *p<0.05, **p<0.001 for healthy vs cirrhotic. Statistical analysis was performed using Spearman correlation test (A), Mann-Whitney (b, for comparison between healthy and cirrhosis) and Wilcoxon matched-pairs signed rank test (B, for treatment). Human blood monocytes. Human monocytes were isolated from freshly isolated PBMC, using EasySep human monocyte enrichment kit (STEMCELL Technologies, 19058), and CD14+CD16+ monocytes were isolated by immunomagnetic negative selection according to the manufacturer's instructions. Cell treatment. […]

[2] = test system: blood monocytes from patients with cirrhosis; test: LC3+ pHrodo+ phagosome (LAPosome) number in blood monocytes from patients with cirrhosis; format: cell-based, human; conditions: 10 mM 3-MA, 30 μM N8 peptide, data not shown
Description: Human blood monocytes. Human monocytes were isolated from freshly isolated PBMC, using EasySep human monocyte enrichment kit (STEMCELL Technologies, 19058), and CD14+CD16+ monocytes were isolated by immunomagnetic negative selection according to the manufacturer's instructions. Cell treatment. Human monocytes, THP1-XBlueTM-CD14 (Invivogen, Catalog #[…] THP1-FcγRIIA+-CD14+(kindly provided by Novimmune) monocytes were used. When indicated cells were exposed to either 30 μM chloroquine diphosphate (Sigma, C6628), 10 mM 3-Methyladenine (3-MA, Sigma, M9281-100 mg), 10 mM Diphenyleneiodonium chloride (DPI, Sigma, D2926-10 mg), or 10 mg/ml IVIg (Privigen, 100 mg/ml) for 4 hrs at 37° C., as indicated. […] For quantification, images were acquired by confocal microscopy (Confocal Zeiss LSM 780) equipped with a 63× oil immersion objective. For each condition, 10 to 15 fields were randomly selected, and the number of LC3+ signal localized around pHrodo+ phagosomes (LC3+ pHrodo+) was quantified in at least 40 to 60 cells. Unless otherwise indicated, results are expressed as number of LC3+ phagosomes/individual normalized to 100 cells. […]

Row | Compound | gene expression of cytokines and chemokines [1] | LC3+ phagosome number [2]
1 | N8 peptide: Tat-conjugated peptide of eight N-terminal amino acids (3-10) of p22phox that blocks the Rubicon-p22phox interaction (QIEWAMWA; also: Tat cell-penetrating peptide conjugate, attachment not given here; UniProt P13498 3-10, looked up, fragment) | significantly higher | significant reduction
2 | Cn1cnc(N)c2ncnc1-2 [3-MA, 3-Methyladenine] | significantly higher | significant reduction
